For one assay, the system named is IFNβ. Conditions: macrophage cell line; J. Smith et al. 2008; cited from earlier work.
Assay [1] relates to XBP-1 mRNA splicing. The experiment in a line: XBP-1 splicing in primary macrophages. Type of assay: cell-based, mouse.
Assay [2] deals with XBP-1 mRNA splicing. The experiment in a line: XBP-1 splicing assay in J774 macrophages. The format is cell-based, mouse. Conditions: for effect of inhibitor on LPS-induced XBP-1 splicing: LPS stimulation.
The test system of another assay is IRE1α. Nature of the assay: IRE1α activation (phosphorylation status, immunoblot) in J774 macrophages. The format is cell-based, mouse. Conditions: J774 macrophages stimulated with the substance. The protocol:
(§1) Total cell extracts were loaded on SDS-PAGE for separation and transferred to PDVF membranes. For Western blot the following antibodies were used: anti-XBP-1s (Biolegend), anti-phospho PERK, IRE1 and phospho-JNK (Cell Signaling), ATF4, HSP90, IkappaBβ and CHOP (Santa Cruz Biotechnology), anti-ATF6α and anti proIL-1β.
(§2) The ability of TLRs to activate the three branches of the ER stress response was tested. J774 macrophages were stimulated with the TLR4 and TLR2 agonists, LPS and Pam3CSK4, and IRE1α, PERK and ATF6 activation were analyzed. ATF6 activation was tested by monitoring the liberation of its cleaved fragment, and PERK and IRE1α activation by examining their phosphorylation status. […] To further examine the effects of TLR signaling on the classical. ER stress response, cells were stimulated with tunicamycin (TM), a potent pharmacologic ER-stress inducer, in the presence or absence of LPS. […] Therefore, TLRs trigger a biased ER-stress response by activating IRE1 while inhibiting the PERK and ATF6 pathways.
(In general: A western blot detects proteins with antibodies after separation by electrophoresis.)

The next assay deals with ATF6. The experiment in a line: ATF6 activation (liberation of cleaved fragment) in J774 macrophages. Type of assay: cell-based, mouse. Conditions: for activation of ATF6 (cleaved fragment): J774 macrophages stimulated with the substance. On the procedure: as §1, §2
A further assay deals with PERK. The experiment in a line: PERK activation (phosphorylation status) in J774 macrophages. The format is cell-based, mouse. Conditions: J774 macrophages stimulated with the substance. The protocol:
as §1, §2

Assay [3] relates to CHOP, BiP, Erdj4 and PDI expression. Nature of the assay: ER-stress target gene expression (quantitative RT-PCR) in J774 macrophages. Type of assay: cell-based, mouse. Conditions: for induction of the classic ER stress downstream target genes CHOP and BiP: J774 macrophages stimulated with the substance. On the procedure:
(§3) Total RNA was prepared using Trizol (Invitrogen) and cDNA synthesis with High capacity cDNA Reverse transcription kit purchased from Applied Biosystems. Quantitative RT-PCR was performed employing SYBR green fluorescent reagent on a Mx3005P® QPCR System from Strategene. The relative amounts of mRNA were calculated from the values of comparative threshold cycle by using β-actin as control.
as §2

In assay [4] the test system is CHOP, PDI, WSF1 expression. Nature of the assay: ER-stress related gene expression in primary macrophages. Type of assay: cell-based, mouse.
For a further assay, the system named is IL-6. Nature of the assay: IL-6 production by LPS stimulated macrophages under ER stress. The format is cell-based, mouse.
A further assay deals with ISG15. Nature of the assay: ISG15 production by LPS stimulated macrophages under ER stress. Type of assay: cell-based, mouse. Conditions: cells simultaneously ER-stressed with TM. The protocol: as §3
Therefore, it was determined whether augmenting this pathway through pharmacologic induction of an ER stress response would enhance the natural response to microbial products. […] Importantly, this finding was confirmed in primary WT and XBP-1Δ macrophages that were left untreated or pre-treated for 12 h with a low dose of TM and then stimulated with LPS for 3 h.

The mark [5] stands for this setting: J774 macrophages, co-treatment with TM.

For `C/C=C(/C)C(=O)O[C@H]1C(C)=C2[C@H]([C@@H]1OC(=O)CCCCCCC)[C@@](C)(OC(C)=O)C[C@H](OC(=O)CCC)[C@@]1(O)[C@H]2OC(=O)[C@@]1(C)O` [thapsigargin], the “IFNβ production upon stimulation with LPS” value in the assay on IFNβ was “increased IFNβ production”.

Take FSL1: in the assay with XBP-1 mRNA splicing [1], the “XBP-1 splicing in TLR2 deficient macrophages” value is recorded as “did not activate XBP-1 splicing”.

In the case of `c1ccc2c(c1)[I+]c1ccccc1-2` [DPI, diphenyleneiodonium chloride], in the assay on XBP-1 mRNA splicing [2], the “effect of inhibitor on LPS-induced XBP-1 splicing” value was “abolished”.

Take lipopolysaccharide [LPS]: the “activation of IRE1α (slower migrating phosphorylated species)” value in the assay on IRE1α is reported as “Clear activation”. Besides, the “activation of ATF6 (cleaved fragment)” value in the assay with ATF6 is “neither activation of ATF6 or PERK”. The “effect of co-treatment on proteolytic processing of ATF6α by TM” value in the assay on ATF6 (setting [5]) is “dramatically repressed”. The “activation of PERK (phosphorylation status)” value (from here on “activation of PERK”) in the assay on PERK was “neither activation of ATF6 or PERK”. Moreover, the “expression of the XBP-1 target genes Erdj4 or PDI” value in assay [3] (J774 macrophages) was “did not induce”. The “induction of the classic ER stress downstream target genes CHOP and BiP” value in assay [3] was “nor induction of the classic ER stress downstream target genes, CHOP and BiP, was observed”. The “effect of co-treatment on TM induction of mRNAs including CHOP, PDI and Erdj4” value in [3] (setting [5]) is “dramatically repressed”. Further, in [3] (J774 macrophages, experiment with or without TM), the “classic ER-stress response as measured by CHOP, BiP, Erdj4 and PDI expression” value is “did not induce a classic ER-stress response”. Moreover, the “splicing of XBP-1 mRNA and production of XBP-1s protein” value with XBP-1 mRNA splicing [2] (J774 macrophages, time after stimulation) is “detected as early as 3 hours”. In the assay with XBP-1 mRNA splicing [1] (macrophages from mice carrying a mutation in the signaling domain of TLR4), the “activation of XBP-1 in TLR4 mutant macrophages” value is listed as “did not activate XBP-1”. Besides, in the assay on XBP-1 mRNA splicing [1] (macrophages, TM plus LPS), the “effect on TM-induced XBP-1 splicing” value is reported as “increased”. In addition, in the assay with XBP-1 mRNA splicing [1] (primary macrophages from wild type (WT) mice), the “activation of XBP-1 in wild type primary macrophages” value is recorded as “observed”. Moreover, the “induction of classic ER-stress related genes such as CHOP or PDI” value in assay [4] (XBP-1Δ macrophages or WT macrophages) was “no induction”.

On to `COc1cc(C(C)=O)ccc1O` [apocynin], for which the “effect of inhibitor on LPS-induced XBP-1 splicing” value with XBP-1 mRNA splicing [2] is “abolished”.

On to Pam3CSK4, for which the “activation of IRE1α (slower migrating phosphorylated species)” value in the assay with IRE1α is “Clear activation”. In the assay on ATF6, the “activation of ATF6 (cleaved fragment)” value is recorded as “neither activation of ATF6 or PERK”. Moreover, the “activation of PERK” value with PERK is recorded as “neither activation of ATF6 or PERK”. Further, the “induction of the classic ER stress downstream target genes CHOP and BiP” value in assay [3] is “nor induction of the classic ER stress downstream target genes, CHOP and BiP, was observed”. For the same compound, in the assay on XBP-1 mRNA splicing [1], the “XBP-1 splicing in TLR2 deficient macrophages” value is recorded as “did not activate XBP-1 splicing”. The “TLR2 dampening of the ER-stress response: dependence on MyD88” value in assay [4] (primary macrophages from MyD88 deficient mice) is on record as “MyD88 dependent”.

Consider tunicamycin [TM], for which the “activation of IRE1α (slower migrating phosphorylated species)” value in the assay with IRE1α was “induced activation of all three branches”. The “activation of ATF6 (cleaved fragment)” value in the assay with ATF6 was “induced activation of all three branches”. Further, in the assay on PERK, the “activation of PERK” value is reported as “induced activation of all three branches”. The “induction of PDI and WSF1 in XBP-1Δ macrophages” value in assay [4] (XBP-1Δ macrophages versus WT) was “reduced”. Moreover, in the assay with IL-6 (cells simultaneously ER-stressed with TM), the “amount of IL-6 produced by LPS stimulated macrophages” value is “dramatically and synergistically increased”. Further, in the assay on IL-6 (pre-treated 12 h with low dose of TM, then LPS 3 h), the “IL-6 production in primary WT macrophages” value is listed as “augmented IL-6 production”. Besides, the “amount of ISG15 produced by LPS stimulated macrophages” value in the assay on ISG15 was “dramatically and synergistically increased”.

Source of the values: US20120141539A1, “METHODS FOR MODULATING TOLL-LIKE RECEPTOR MEDIATED ACTIVATION OF CELLS OF THE INNATE SYSTEM BY MODULATING XBP-1 ACTIVITY” (PRESIDENT AND FELLOWS OF HARVARD COLLEGE, priority 2009, published 2012).
